Results reported in patent US20060079453A1, “Hla binding peptides and their uses” (priority 2002, published 2006).
Where two headings read alike, the source gives them in different places. No end group written: not given here.

Columns and labels:
Test in all cases: biochemical
Type in all cases: binding
HLA-DR DRB1*0701 (DR7) = HLA-DR DRB1*0701 (DR7) (Homo sapiens, UniProt P01903+P01911, A100R/A102G/A103Q/D57E/D86V/E43K/F76Y/K127E/L162R/M171V/P40G/Q125H/Q99D/R33Q/R42Y/R54Q/S133A/S66F/T210M/V115G/Y107V/Y59L/Y89S)
HLA-DR DRB5*0101 (DR51) = HLA-DR DRB5*0101 (DR51) (Homo sapiens, UniProt P01903+Q30154); conditions: DRB5 *0101
HLA-DR DRB1*0101 (DR1) = HLA-DR DRB1*0101 (DR1) (Homo sapiens, UniProt P01903+P01911, A100R/D57E/F55L/F60I/F76Y/I96L/L162R/M171V/P40L/Q125E/R42F/V115G/Y59C)
HLA-DR DRB1*0401 (DR4) = HLA-DR DRB1*0401 (DR4) (Homo sapiens, UniProt P01903+P01911, A100K/A169T/F76Y/I96L/K127E/L162R/M171V/N62H/P40V/Q125Y/R42H/S133A/S149N/S66Y/V115G/V209L/W38E)
HLA-DR DRB1*0802 (DR8) = HLA-DR DRB1*0802 (DR8) (Homo sapiens, UniProt P01903+P01911, A100R/A103L/A169T/F76Y/H45Y/I96F/K41T/L162R/M171V/P40S/Q125H/Q178H/Q39Y/Q99D/R218S/R42G/S66Y/V115G/W38E)
HLA-DR DRB1*1302 (DR13) = HLA-DR DRB1*1302 (DR13) (Homo sapiens, UniProt P01903+P01911, A100E/A169T/K41T/L162R/M171V/P40S/Q125H/Q178H/Q39Y/Q99D/R42S/S66N/T262R/V115G/W38E/Y61H); conditions: DRBI *1302
HLA-DR DRB1*1501 (DR15) = HLA-DR DRB1*1501 (DR15) (Homo sapiens, UniProt P01903+P01911); conditions: DRBI *1501
HLA-DR DRB4*0101 (DR53) = HLA-DR DRB4*0101 (DR53) (Homo sapiens, UniProt P01903+P13762, G164S); conditions: DRB4 *0101
HLA-DR DRB1*0901 (DR9) = HLA-DR DRB1*0901 (DR9) (Homo sapiens, UniProt P01903+P01911, A100R/A103E/D57H/D86V/F55Y/F60I/F76Y/I96F/K127E/L162R/M171V/P40D/Q125H/Q99R/R33Q/R42F/S133A/S66N/T210M/V115G/W38K/Y107V/Y59G/Y89S); conditions: read-out: DRB1 *0901
HLA-DR DRB1*0301 (DR3) = HLA-DR DRB1*0301 (DR3) (Homo sapiens, UniProt P01903+P01911, A100K/A102G/A103R/A169T/F55Y/I96L/K41T/L162R/M171V/P40S/Q125H/Q178H/Q39Y/R42S/S66N/T106N/T262R/W38E/Y61H); conditions: read-out: DRB1 *0301
Sequence of HLA-DR DRB1*0301 (DR3) (P01903 26-254 limits assumed, other chains not shown): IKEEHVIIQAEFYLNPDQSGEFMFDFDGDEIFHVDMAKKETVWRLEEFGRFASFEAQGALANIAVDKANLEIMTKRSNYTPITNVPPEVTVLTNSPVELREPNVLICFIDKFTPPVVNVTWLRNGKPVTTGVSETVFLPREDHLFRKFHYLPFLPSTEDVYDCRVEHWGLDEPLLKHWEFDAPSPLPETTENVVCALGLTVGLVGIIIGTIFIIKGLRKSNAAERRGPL

Sequence of HLA-DR DRB1*1302 (DR13) (P01903 26-254 limits assumed, other chains not shown): as above

Sequence | IC50 (HLA-DR DRB1*0701 (DR7); DRB1 *0701) | IC50 (HLA-DR DRB5*0101 (DR51)) | IC50 (HLA-DR DRB1*0101 (DR1); DRB1 *0101) | IC50 (HLA-DR DRB1*0401 (DR4); DRB1 *0401) | IC50 (HLA-DR DRB1*0802 (DR8)) | IC50 (HLA-DR DRB1*1302 (DR13)) | IC50 (HLA-DR DRB1*1501 (DR15)) | IC50 (HLA-DR DRB4*0101 (DR53)) | IC50 (HLA-DR DRB1*0701 (DR7); read-out: DRB1 *0701) | IC50 (HLA-DR DRB1*0901 (DR9)) | IC50 (HLA-DR DRB1*0401 (DR4); read-out: DRB1 *0401) | IC50 (HLA-DR DRB1*0802 (DR8); read-out: DRB1 *0802) | IC50 (HLA-DR DRB1*0301 (DR3)) | IC50 (HLA-DR DRB1*0101 (DR1); read-out: DRB1 *0101)
QKILIKIPVTKNIIT | 534 nM | 297 nM | 993 nM | 303 nM | 2240 nM | 332 nM | 3610 nM | 953 nM | – | – | – | – | – | –
VAQVRGGMVFELANS | – | – | – | – | – | – | – | – | 4450 nM | 499 nM | 662 nM | > 98000 nM | – | –
SFLQNPQTSLCCFRK | – | – | – | – | – | – | – | – | 7030 nM | – | 671 nM | 7070 nM | 1830 nM | –
KPAVYTKVVHYRICWI | – | – | – | – | – | – | – | – | 2400 nM | 3680 nM | – | 53 nM | – | 5000 nM
FENLVAENVKPPKVD | 120000 nM | 62700 nM | 56 nM | 2370 nM | > 25000 nM | 3030 nM | > 50800 nM | 9300 nM | – | – | – | – | – | –
LDIYQKLYIKQEEQK | > 88300 nM | 6960 nM | 2830 nM | 1490 nM | 1200 nM | 4350 nM | 47 nM | 70 nM | – | – | – | – | – | –
FIHFFTWGTMFVPKY | 489 nM | 9610 nM | – | 273 nM | 1700 nM | 328 nM | 2380 nM | – | – | – | – | – | – | –
TAWTIVRVEILRYFY | – | – | – | – | – | – | – | – | 29 nM | – | 44 nM | 57200 nM | 3000 nM | 7.8 nM
